Data as given in the NIST ThermoML archive (doi:10.1016/j.jct.2003.11.008).

Experiments:
[1] = xn = mol fraction of the nth substance listed; conditions: 318.15 K, 101.3 kPa, Liquid
[2] = excess molar enthalpy (molar enthalpy of mixing); xn = mol fraction of the nth substance listed; conditions: 318.15 K, 101.3 kPa, Liquid

CCCCCOC(C)=O [pentyl ethanoate] + CCCCCCCCCCCCC
Conditions	excess molar enthalpy [kJ/mol]	excess molar volume [m3/mol]
[1], x1 = 0.0955	–	3.07e-07
[1], x1 = 0.1575	–	4.63e-07
[1], x1 = 0.2323	–	6.22e-07
[1], x1 = 0.2961	–	7.29e-07
[1], x1 = 0.3517	–	7.96e-07
[1], x1 = 0.4152	–	8.59e-07
[1], x1 = 0.4689	–	8.87e-07
[1], x1 = 0.5228	–	8.91e-07
[1], x1 = 0.5724	–	8.76e-07
[1], x1 = 0.6226	–	8.35e-07
[1], x1 = 0.667	–	7.77e-07
[1], x1 = 0.7036	–	7.29e-07
[1], x1 = 0.7416	–	6.77e-07
[1], x1 = 0.8311	–	5.02e-07
[1], x1 = 0.8985	–	3.43e-07
[1], x1 = 0.9564	–	1.66e-07
[2], x1 = 0.0653	0.319	–
[2], x1 = 0.1352	0.576	–
[2], x1 = 0.2036	0.798	–
[2], x1 = 0.2679	0.966	–
[2], x1 = 0.326	1.08	–
[2], x1 = 0.3795	1.16	–
[2], x1 = 0.4178	1.2	–
[2], x1 = 0.4635	1.23	–
[2], x1 = 0.5035	1.23	–
[2], x1 = 0.5376	1.21	–
[2], x1 = 0.5674	1.19	–
[2], x1 = 0.5679	1.17	–
[2], x1 = 0.6418	1.09	–
[2], x1 = 0.6886	1.01	–
[2], x1 = 0.7385	0.908	–
[2], x1 = 0.7897	0.792	–
[2], x1 = 0.8433	0.639	–
[2], x1 = 0.8966	0.453	–
[2], x1 = 0.9506	0.243	–

CCCCCCCCCCCCCCC [pentadecane] + CCOC(C)=O
Conditions	excess molar enthalpy [kJ/mol]	excess molar volume [m3/mol]
[1], x2 = 0.0932	–	4.44e-07
[1], x2 = 0.1272	–	5.87e-07
[1], x2 = 0.2314	–	9.83e-07
[1], x2 = 0.3237	–	1.237e-06
[1], x2 = 0.4048	–	1.412e-06
[1], x2 = 0.465	–	1.483e-06
[1], x2 = 0.5427	–	1.54e-06
[1], x2 = 0.5987	–	1.536e-06
[1], x2 = 0.6373	–	1.512e-06
[1], x2 = 0.6957	–	1.432e-06
[1], x2 = 0.7643	–	1.293e-06
[1], x2 = 0.8273	–	1.104e-06
[1], x2 = 0.8926	–	8.05e-07
[1], x2 = 0.9375	–	5.48e-07
[1], x2 = 0.9714	–	2.73e-07
[2], x2 = 0.0901	0.559	–
[2], x2 = 0.1777	1.02	–
[2], x2 = 0.2582	1.42	–
[2], x2 = 0.3339	1.72	–
[2], x2 = 0.397	1.91	–
[2], x2 = 0.4609	2.05	–
[2], x2 = 0.5093	2.11	–
[2], x2 = 0.5557	2.14	–
[2], x2 = 0.6033	2.13	–
[2], x2 = 0.6563	2.07	–
[2], x2 = 0.6935	2.01	–
[2], x2 = 0.7292	1.91	–
[2], x2 = 0.7706	1.78	–
[2], x2 = 0.813	1.61	–
[2], x2 = 0.8538	1.39	–
[2], x2 = 0.8958	1.14	–
[2], x2 = 0.9283	0.88	–
[2], x2 = 0.9676	0.48	–

CCCCCCCCCCCCC [tridecane] + CCCCOC(C)=O
Conditions	excess molar enthalpy [kJ/mol]	excess molar volume [m3/mol]
[1], x2 = 0.1024	–	3.78e-07
[1], x2 = 0.1769	–	5.73e-07
[1], x2 = 0.2511	–	7.35e-07
[1], x2 = 0.3192	–	8.56e-07
[1], x2 = 0.3845	–	9.36e-07
[1], x2 = 0.4434	–	9.93e-07
[1], x2 = 0.5021	–	1.014e-06
[1], x2 = 0.5481	–	1.023e-06
[1], x2 = 0.6023	–	1.006e-06
[1], x2 = 0.6495	–	9.59e-07
[1], x2 = 0.6914	–	9.14e-07
[1], x2 = 0.7346	–	8.49e-07
[1], x2 = 0.7647	–	7.97e-07
[1], x2 = 0.8473	–	5.94e-07
[1], x2 = 0.9072	–	3.95e-07
[1], x2 = 0.9586	–	1.65e-07
[2], x2 = 0.0771	0.382	–
[2], x2 = 0.166	0.712	–
[2], x2 = 0.2551	0.995	–
[2], x2 = 0.3371	1.2	–
[2], x2 = 0.405	1.31	–
[2], x2 = 0.4672	1.36	–
[2], x2 = 0.5179	1.38	–
[2], x2 = 0.5589	1.36	–
[2], x2 = 0.5984	1.34	–
[2], x2 = 0.6058	1.33	–
[2], x2 = 0.64	1.28	–
[2], x2 = 0.6863	1.2	–
[2], x2 = 0.7361	1.08	–
[2], x2 = 0.7879	0.939	–
[2], x2 = 0.8426	0.766	–
[2], x2 = 0.8971	0.545	–
[2], x2 = 0.9531	0.286	–

CCCCCOC(C)=O [pentyl ethanoate] + CCCCCCC
Conditions	excess molar enthalpy [kJ/mol]	excess molar volume [m3/mol]
[1], x1 = 0.0546	–	1.29e-07
[1], x1 = 0.1048	–	2.14e-07
[1], x1 = 0.1515	–	2.65e-07
[1], x1 = 0.2014	–	3.07e-07
[1], x1 = 0.2488	–	3.45e-07
[1], x1 = 0.3009	–	3.81e-07
[1], x1 = 0.3474	–	3.99e-07
[1], x1 = 0.3999	–	4.11e-07
[1], x1 = 0.4426	–	4.09e-07
[1], x1 = 0.4977	–	3.97e-07
[1], x1 = 0.5503	–	3.72e-07
[1], x1 = 0.5881	–	3.55e-07
[1], x1 = 0.636	–	3.23e-07
[1], x1 = 0.7502	–	2.51e-07
[1], x1 = 0.8467	–	1.71e-07
[1], x1 = 0.9288	–	9.4e-08
[2], x1 = 0.0544	0.237	–
[2], x1 = 0.1187	0.434	–
[2], x1 = 0.1801	0.591	–
[2], x1 = 0.2428	0.706	–
[2], x1 = 0.3049	0.803	–
[2], x1 = 0.3645	0.857	–
[2], x1 = 0.4174	0.883	–
[2], x1 = 0.468	0.887	–
[2], x1 = 0.472	0.886	–
[2], x1 = 0.5161	0.876	–
[2], x1 = 0.5646	0.848	–
[2], x1 = 0.6163	0.801	–
[2], x1 = 0.6696	0.737	–
[2], x1 = 0.7277	0.65	–
[2], x1 = 0.7889	0.534	–
[2], x1 = 0.8473	0.404	–
[2], x1 = 0.9078	0.257	–
[2], x1 = 0.9594	0.116	–
